{"source": "patent US7662997B2", "about": "“Synthesis and applications of 2-oxo-4-methylthiobutyric acid, its salts and its derivatives” (Adisseo Ireland Limited, priority 2004, dated 2010)", "conditions": "chicken; for Cl D7-D21 Delta (%) / Consumption D7-D21 Delta (%) / Weight gain D7-D21 Delta (%): relative to control R1", "procedure": "The starting product is a food base that is deficient in methionine, methionine being the nutritional element for which it is desired to observe a response, and the said nutritional element that is lacking is then introduced in the reference forms and in the test form, and then the performance levels obtained in each of the systems are compared, system R1 corresponding to no introduction of methionine.\nTwo chickens per cage are tested, with controlled randomization by chance.\nSeven treatments were carried out:\nR1: without added methionine,\nR2 and R3: +Rhodimet™ NP99 (D,L-methionine powder sold by the applicant) at two different doses,\nR4 and R5: +Rhodimet™ AT88, at two different doses\nR6 and R7: +KMB, at two different doses.\nThey were each repeated 14 times and are represented in Table 3 below.\nZootechnical performance levels as a function of treatments (period 7-21 days)\nThe smaller the number of grams required to obtain one gram of weight gain, the greater the efficiency of the product, as illustrated in the FIGURE.\nThe ratio of KMB efficiency to DL-methionine efficiency is then calculated by calculating the ratio of the conversion efficiency values calculated at the two doses used.", "key": {"[1]": {"conditions": "addition of 0.1% of methionine, 7-21 days, versus control"}, "[2]": {"conditions": "higher dose (NP99 0.200%, AT88 0.225%, KMB 0.204%)"}, "[3]": {"conditions": "higher dose (R3 NP99 0.200%, R5 AT88 0.225%, R7 KMB 0.204%)"}, "[4]": {"conditions": "lower dose (NP99 0.100%, AT88 0.113%, KMB 0.102%)"}, "[5]": {"conditions": "lower dose (R2 NP99 0.100%, R4 AT88 0.113%, R6 KMB 0.102%)"}}, "note": "Like-named read-outs stand apart in the source and are kept apart here."}
{"smiles": "CSCCC(N)C(=O)O", "note": "(racemic) [Rhodimet™ NP99, D,L-methionine]", "values": [{"measurement": "decrease of the consumption index", "setting": "[1]", "value": "−11", "unit": "%"}, {"measurement": "increase of the weight gain", "setting": "[1]", "value": 90, "unit": "g"}, {"measurement": "Cl D7-D21 Delta (%)", "setting": "[2]", "value": "−9.2", "unit": "%"}, {"measurement": "Consumption D7-D21 Delta (%)", "setting": "[2]", "value": 5.5, "unit": "%"}, {"measurement": "Weight gain D7-D21 Delta (%)", "setting": "[2]", "value": 16.2, "unit": "%"}, {"measurement": "Consumption D7-D21 (g) Means", "setting": "[3]", "value": 823, "unit": "g"}, {"measurement": "Mortality D7-D21", "setting": "[3]", "value": 0.0, "unit": "%"}, {"measurement": "Weight gain D7-D21 (g) Means", "setting": "[3]", "value": 527, "unit": "b g"}, {"measurement": "Cl D7-D21 Delta (%)", "setting": "[4]", "value": "−11.1", "unit": "%"}, {"measurement": "Consumption D7-D21 Delta (%)", "setting": "[4]", "value": 6.7, "unit": "%"}, {"measurement": "Weight gain D7-D21 Delta (%)", "setting": "[4]", "value": 19.8, "unit": "%"}, {"measurement": "Consumption D7-D21 (g) Means", "setting": "[5]", "value": 832, "unit": "g"}, {"measurement": "Mortality D7-D21", "setting": "[5]", "value": 0.0, "unit": "%"}, {"measurement": "Weight gain D7-D21 (g) Means", "setting": "[5]", "value": 544, "unit": "b g"}]}
